Test results from patent publication US12139520B2 (priority 2020, dated 2024).
Numbered stars: 1 amine (or outer) side, 2 acyl side, 3 side chain; on linkers, the order of the positions; unused ones are H or OH. Bridge positions count the residues as written; N and C are the ends. Square brackets hold non-standard residues; d marks the D form. Side chains are listed from the residue outwards. Peptide text beside a SMILES is read from it. * marks the point of attachment. C20 diacid = O=C(O)CCCCCCCCCCCCCCCCCCC(=O)*; γGlu = O=C(O)[C@H](CCC(=O)[*:2])N[*:1]; Hyp = O=C(O)[C@@H]1C[C@@H](O)CN1; AEEA = NCCOCCOCC(=O)O

Columns and labels:
[1] = target: T1, hAMY3 receptor (Homo sapiens, UniProt O60896+P30988); test: cAMP assay for in vitro receptor activation, hAMY3-R; type: cell-based; conditions: cAMP assay, hAMY3 receptor; read-out: hAMY3R EC50
T1 sequence (P30988 25-474): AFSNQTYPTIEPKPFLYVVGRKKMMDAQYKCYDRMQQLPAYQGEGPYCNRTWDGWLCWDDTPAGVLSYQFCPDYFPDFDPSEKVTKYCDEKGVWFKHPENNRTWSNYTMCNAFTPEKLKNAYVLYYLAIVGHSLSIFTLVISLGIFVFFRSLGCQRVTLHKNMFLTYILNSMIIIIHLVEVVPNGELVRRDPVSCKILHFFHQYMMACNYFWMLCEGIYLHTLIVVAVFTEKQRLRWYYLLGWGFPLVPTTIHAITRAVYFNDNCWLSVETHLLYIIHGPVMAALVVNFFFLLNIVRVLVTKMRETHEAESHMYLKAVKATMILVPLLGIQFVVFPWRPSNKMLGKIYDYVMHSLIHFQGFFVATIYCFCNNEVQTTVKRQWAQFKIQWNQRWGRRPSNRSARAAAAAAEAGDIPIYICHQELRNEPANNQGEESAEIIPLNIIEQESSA
T1 sequence (O60896 24-148 partner): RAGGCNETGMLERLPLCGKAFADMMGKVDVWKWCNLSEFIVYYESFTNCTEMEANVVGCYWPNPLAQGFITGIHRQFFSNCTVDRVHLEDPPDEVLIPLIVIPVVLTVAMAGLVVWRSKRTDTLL
Summary of the method: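 Monoclonal cell line stably overexpressing human AMY3 receptor, 2000 cells/well in DPBS with 0.05% casein and 0.5 mM IBMX. Stimulated 30 min at room temperature with graded compound doses, human amylin as positive control. cAMP accumulation read by TR-FRET after one hour.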

[2] = target: hAM1 receptor (Homo sapiens, UniProt O60895+Q16602); test: cAMP assay for in vitro receptor activation, hAM1-R; type: cell-based; conditions: cAMP assay, hAM1 receptor; read-out: hAM1R EC50
Summary of the method: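 Read-out is intracellular cAMP as a measure of receptor activation. Cells stably overexpressing hAM1 were subcloned to a monoclonal line, then thawed and seeded at 8000 cells/well in DPBS with 0.05% casein and the phosphodiesterase inhibitor IBMX at 0.5 mM.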

Sequence of hAM1 receptor (Q16602 23-461): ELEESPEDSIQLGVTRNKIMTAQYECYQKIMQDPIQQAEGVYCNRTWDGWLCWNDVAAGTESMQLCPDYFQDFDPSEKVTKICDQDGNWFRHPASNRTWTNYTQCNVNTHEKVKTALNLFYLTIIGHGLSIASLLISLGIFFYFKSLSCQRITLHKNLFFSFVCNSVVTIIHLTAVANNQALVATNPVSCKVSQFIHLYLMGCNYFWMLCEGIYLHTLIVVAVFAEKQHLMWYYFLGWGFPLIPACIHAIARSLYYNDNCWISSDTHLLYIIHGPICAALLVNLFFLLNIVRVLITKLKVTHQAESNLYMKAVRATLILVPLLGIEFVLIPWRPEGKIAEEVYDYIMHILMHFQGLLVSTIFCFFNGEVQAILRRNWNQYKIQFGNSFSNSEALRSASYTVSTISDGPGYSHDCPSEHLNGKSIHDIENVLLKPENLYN
Sequence of hAM1 receptor (O60895 43-175 partner): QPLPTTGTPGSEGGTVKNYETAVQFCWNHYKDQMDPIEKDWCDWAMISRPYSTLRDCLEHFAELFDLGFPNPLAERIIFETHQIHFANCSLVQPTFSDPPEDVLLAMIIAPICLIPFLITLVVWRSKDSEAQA

For `CC[C@H](C)[C@H](NC(=O)[C@H](CCC(N)=O)NC(=O)[C@H](Cc1c[nH]cn1)NC(=O)[C@H](C)NC(=O)[C@H](CC(C)C)NC(=O)[C@H](CCCNC(=N)N)NC(=O)[C@H](CC(=O)O)NC(=O)[C@@H](NC(=O)[C@@H](NC(=O)[C@@H]1CSSC[C@H](NC(=O)[C@H](CCCCN)NC(=O)CC[C@H](NC(=O)CCCCCCCCCCCCCCCCCCC(=O)O)C(=O)O)C(=O)N[C@@H](CC(N)=O)C(=O)N[C@@H]([C@@H](C)O)C(=O)N[C@@H](C)C(=O)N[C@@H]([C@@H](C)O)C(=O)N1)[C@@H](C)O)C(C)C)C(=O)N[C@@H](C)C(=O)N[C@@H](CCC(N)=O)C(=O)N[C@@H](Cc1ccccc1)C(=O)N[C@H](C(=O)N[C@@H](CC(=O)O)C(=O)N[C@@H](CCCCN)C(=O)N[C@@H](CC(=O)O)C(=O)N[C@@H](CCCCN)C(=O)N[C@@H](CC(=O)O)C(=O)N1CCC[C@H]1C(=O)N[C@H](C(=O)N[C@@H](C)C(=O)N1CCC[C@H]1C(=O)N1CCC[C@H]1C(=O)N[C@H](C(=O)N[C@@H](CC(N)=O)C(=O)N[C@H](C(=O)NCC(=O)N[C@@H](CO)C(=O)N[C@@H](CC(N)=O)C(=O)NCC(=O)N1C[C@H](O)C[C@H]1C(N)=O)C(C)C)[C@@H](C)O)C(C)C)[C@@H](C)O` [compound 130] ({C20 diacid-γGlu}-KCNTATCTVDRLAHQIAQFTDKDKDPVAPPTNVGSNG[Hyp]-NH2; disulfide 2-7), the EC50 [1] was 0.03 nM and the EC50 [2] was > 5000 nM.
In the case of `CC[C@H](C)[C@H](NC(=O)[C@H](CCC(N)=O)NC(=O)[C@H](CCC(=O)O)NC(=O)[C@H](C)NC(=O)[C@H](CC(C)C)NC(=O)[C@H](CCCNC(=N)N)NC(=O)[C@H](C)NC(=O)[C@@H](NC(=O)[C@@H](NC(=O)[C@@H]1CSSC[C@H](NC(=O)[C@H](CCCCN)NC(=O)CC[C@H](NC(=O)CCCCCCCCCCCCCCCCCCC(=O)O)C(=O)O)C(=O)N[C@@H](CC(N)=O)C(=O)N[C@@H]([C@@H](C)O)C(=O)N[C@@H](C)C(=O)N[C@@H]([C@@H](C)O)C(=O)N1)[C@@H](C)O)C(C)C)C(=O)N[C@@H](Cc1ccc(O)cc1)C(=O)N[C@@H](CCC(N)=O)C(=O)N[C@@H](Cc1ccccc1)C(=O)N[C@H](C(=O)N[C@@H](CC(=O)O)C(=O)N[C@@H](CCCCN)C(=O)N[C@@H](CC(=O)O)C(=O)N[C@@H](CCCCN)C(=O)N[C@@H](CC(=O)O)C(=O)N1CCC[C@H]1C(=O)N[C@H](C(=O)N[C@@H](C)C(=O)N1CCC[C@H]1C(=O)N1CCC[C@H]1C(=O)N[C@H](C(=O)N[C@@H](CC(N)=O)C(=O)N[C@H](C(=O)NCC(=O)N[C@@H](CO)C(=O)N[C@@H](CC(N)=O)C(=O)NCC(=O)N1C[C@H](O)C[C@H]1C(N)=O)C(C)C)[C@@H](C)O)C(C)C)[C@@H](C)O` [compound 133] ({C20 diacid-γGlu}-KCNTATCTVARLAEQIYQFTDKDKDPVAPPTNVGSNG[Hyp]-NH2; disulfide 2-7), the EC50 [1] is reported as 0.031 nM and the EC50 [2] is reported as > 5000 nM.
`CC[C@H](C)[C@H](NC(=O)[C@H](CCC(N)=O)NC(=O)[C@H](CCC(=O)O)NC(=O)[C@H](C)NC(=O)[C@H](CC(C)C)NC(=O)[C@H](CCCNC(=N)N)NC(=O)[C@H](CCC(N)=O)NC(=O)[C@@H](NC(=O)[C@@H](NC(=O)[C@@H]1CSSC[C@H](NC(=O)[C@@H](N)CCCCN)C(=O)N[C@@H](CC(N)=O)C(=O)N[C@@H]([C@@H](C)O)C(=O)N[C@@H](C)C(=O)N[C@@H]([C@@H](C)O)C(=O)N1)[C@@H](C)O)C(C)C)C(=O)N[C@@H](CCCCNC(=O)COCCOCCNC(=O)COCCOCCNC(=O)CC[C@H](NC(=O)CCCCCCCCCCCCCCCCCCC(=O)O)C(=O)O)C(=O)N[C@@H](CCC(N)=O)C(=O)N[C@@H](Cc1ccccc1)C(=O)N[C@H](C(=O)N[C@@H](CC(=O)O)C(=O)N[C@@H](CCCCN)C(=O)N[C@@H](CC(=O)O)C(=O)N[C@@H](CCCCN)C(=O)N[C@@H](CC(=O)O)C(=O)N[C@@H](CC(N)=O)C(=O)N[C@H](C(=O)N[C@@H](C)C(=O)N1CCC[C@H]1C(=O)N1CCC[C@H]1C(=O)N[C@H](C(=O)N[C@@H](CC(N)=O)C(=O)N[C@H](C(=O)NCC(=O)N[C@@H](CO)C(=O)N[C@@H](CC(N)=O)C(=O)NCC(=O)N1C[C@H](O)C[C@H]1C(N)=O)C(C)C)[C@@H](C)O)C(C)C)[C@@H](C)O` [compound 136] (H-KCNTATCTVQRLAEQIK([AEEA-AEEA-γGlu-C20 diacid])QFTDKDKDNVAPPTNVGSNG[Hyp]-NH2; disulfide 2-7; N-terminus assumed) was tested, and the EC50 [1] was 0.033 nM and the EC50 [2] was > 5000 nM.
In the case of `CC[C@H](C)[C@H](NC(=O)[C@H](CCC(N)=O)NC(=O)[C@H](Cc1c[nH]cn1)NC(=O)[C@H](C)NC(=O)[C@H](CC(C)C)NC(=O)[C@H](CCCNC(=N)N)NC(=O)[C@H](C)NC(=O)[C@@H](NC(=O)[C@@H](NC(=O)[C@@H]1CSSC[C@H](NC(=O)[C@H](CCCCN)NC(=O)CC[C@H](NC(=O)CCCCCCCCCCCCCCCCCCC(=O)O)C(=O)O)C(=O)N[C@@H](CC(N)=O)C(=O)N[C@@H]([C@@H](C)O)C(=O)N[C@@H](C)C(=O)N[C@@H]([C@@H](C)O)C(=O)N1)[C@@H](C)O)C(C)C)C(=O)N[C@@H](CC(N)=O)C(=O)N[C@@H](CCC(N)=O)C(=O)N[C@@H](Cc1ccccc1)C(=O)N[C@H](C(=O)N[C@@H](CC(=O)O)C(=O)N[C@@H](CCCCN)C(=O)N[C@@H](CC(=O)O)C(=O)N[C@@H](CCCCN)C(=O)N[C@@H](CC(=O)O)C(=O)N1CCC[C@H]1C(=O)N[C@H](C(=O)N[C@@H](C)C(=O)N1CCC[C@H]1C(=O)N1CCC[C@H]1C(=O)N[C@H](C(=O)N[C@@H](CC(N)=O)C(=O)N[C@H](C(=O)NCC(=O)N[C@@H](CO)C(=O)N[C@@H](CC(N)=O)C(=O)NCC(=O)N1C[C@H](O)C[C@H]1C(N)=O)C(C)C)[C@@H](C)O)C(C)C)[C@@H](C)O` [compound 137] ({C20 diacid-γGlu}-KCNTATCTVARLAHQINQFTDKDKDPVAPPTNVGSNG[Hyp]-NH2; disulfide 2-7), the EC50 [1] is reported as 0.034 nM and the EC50 [2] is reported as > 5000 nM.
For `CC[C@H](C)[C@H](NC(=O)[C@H](CCC(N)=O)NC(=O)[C@H](CCC(=O)O)NC(=O)[C@H](C)NC(=O)[C@H](CC(C)C)NC(=O)[C@H](CCCNC(=N)N)NC(=O)[C@H](CCC(N)=O)NC(=O)[C@@H](NC(=O)[C@@H](NC(=O)[C@@H]1CSSC[C@H](NC(=O)[C@H](CCCCN)NC(=O)CC[C@H](NC(=O)CCCCCCCCCCCCCCCCCCC(=O)O)C(=O)O)C(=O)N[C@@H](CC(N)=O)C(=O)N[C@@H]([C@@H](C)O)C(=O)N[C@@H](C)C(=O)N[C@@H]([C@@H](C)O)C(=O)N1)[C@@H](C)O)C(C)C)C(=O)N[C@@H](C)C(=O)N[C@@H](CCC(N)=O)C(=O)N[C@@H](Cc1ccccc1)C(=O)N[C@H](C(=O)N[C@@H](CC(=O)O)C(=O)N[C@@H](CCCCN)C(=O)N[C@@H](CC(=O)O)C(=O)N[C@@H](CCCCN)C(=O)N[C@@H](CC(=O)O)C(=O)N1CCC[C@H]1C(=O)N[C@H](C(=O)N[C@@H](C)C(=O)N1CCC[C@H]1C(=O)N1CCC[C@H]1C(=O)N[C@H](C(=O)N[C@@H](CC(N)=O)C(=O)N[C@H](C(=O)NCC(=O)N[C@@H](CO)C(=O)N[C@@H](CC(N)=O)C(=O)NCC(=O)N1C[C@H](O)C[C@H]1C(N)=O)C(C)C)[C@@H](C)O)C(C)C)[C@@H](C)O` [compound 144] ({C20 diacid-γGlu}-KCNTATCTVQRLAEQIAQFTDKDKDPVAPPTNVGSNG[Hyp]-NH2; disulfide 2-7), the EC50 [1] was 0.038 nM and the EC50 [2] was > 5000 nM.
In the case of `CC[C@H](C)[C@H](NC(=O)[C@H](C)NC(=O)CNC(=O)[C@H](Cc1ccccc1)NC(=O)[C@H](CC(N)=O)NC(=O)[C@H](CC(N)=O)NC(=O)[C@H](CO)NC(=O)[C@H](CO)NC(=O)[C@H](Cc1c[nH]cn1)NC(=O)[C@@H](NC(=O)[C@H](CC(C)C)NC(=O)[C@H](Cc1ccccc1)NC(=O)[C@H](CC(N)=O)NC(=O)[C@H](C)NC(=O)[C@H](CC(C)C)NC(=O)[C@H](CCCNC(=N)N)NC(=O)[C@H](CCC(N)=O)NC(=O)[C@@H](NC(=O)[C@H](C)NC(=O)[C@@H]1CSSC[C@H](NC(=O)[C@@H](N)CCCCN)C(=O)N[C@@H](CC(N)=O)C(=O)N[C@@H]([C@@H](C)O)C(=O)N[C@@H](C)C(=O)N[C@@H]([C@@H](C)O)C(=O)N1)[C@@H](C)O)C(C)C)C(=O)N[C@@H](CC(C)C)C(=O)N[C@@H](CO)C(=O)N[C@@H](CO)C(=O)N[C@H](C(=O)N[C@@H](CCCCN)C(=O)N[C@H](C(=O)NCC(=O)N[C@@H](CO)C(=O)N[C@@H](CC(N)=O)C(=O)NCC(=O)N[C@@H](Cc1ccc(O)cc1)C(N)=O)[C@@H](C)CC)[C@@H](C)O` [compound 148] (H-KCNTATCATQRLANFLVHSSNNFGAILSSTKIGSNGY-NH2; disulfide 2-7; N-terminus assumed), the EC50 [1] is reported as 0.04 nM and the EC50 [2] is reported as > 5000 nM.
